Assay results as given in patent publication US6461619B1 (Somerset Pharmaceuticals, Inc., priority 1998, dated 2002).
Counter-ions that a name gives are not always drawn.

Legend:
[1] = system: superoxide dysmutase, catalase and glutathione peroxidase; details: background statement (Jenner, et al.); cited from earlier work
[2] = system: second-degree burn wounds; assay: second-degree burn wound model, epidermal migration (epithelization) assessment; type: in vivo, Swine; details: for Percent of wounds completely epithelized / number of wounds healed (completely epithelized) over the number of wounds assessed: pig
Description: The ability of selegiline and desmethylselegiline to assist in the healing of burns was tested using a second-degree burn wound model. In second-degree burns, the entire surface of the epidermis is destroyed. An epidermal covering is regenerated from the remaining epithelial and epidermal cells adjacent to the burns. This phase of the healing process is called epithelization.
Swine were used for the experimental research animal because their skin has many morphological similarities to human skin. Seven young female specific pathogen free (SPF:Ken-O-Kaw Farms, Windsor, Ill.) pigs weighing 25-30 kg were kept in house for two weeks prior to initiating the experiment. These animals were fed a basal diet ad libitum and housed individually in facilities with controlled temperature (19-21° C.) and lights (12 h/12 h LD).
Experimental animals were clipped with standard animal clippers on the day of the experiment. The skin on the back and both sides of the animal was prepared for wounding by washing with a non-antibiotic soap and sterile water. Each animal was anesthetized i.m. with ketamine-HCl (20 mg/kg), xylazine (2 mg/kg) and atropine (0.05 mg/kg), followed by mask inhalation of an isoflurane and oxygen combination. Five specifically designed cylindrical brass rods weighing 358 g each were heated in a boiling water bath to 100° C. A rod was removed from the water bath and wiped dry before being applied to the skin surface to prevent water droplets from creating a steam burn on the skin. The brass rod was held at a vertical position on the skin for six seconds with all pressure being supplied by gravity in order to make a burn 8.5 mm diameter×0.8 mm deep. Immediately after burning, the roof of the burn blister was removed with a sterile spatula. The burn wounds were made approximately 2 cm from each other.
Approximately 90 burn wounds were made on the anterior two-thirds of the animal. The posterior third of the animal cannot be used because of anatomical differences in burn wound healing (a more rapid healing of burns has been observed at that position).
A total of seven animals were used and a total of fifteen wounds per treatment group were analyzed on each of days 7-12 after wounding. Treatments were coded to maintain blind study compliance. The burn wounds were treated with 25 ug of test article (enough to cover each wound). Treatments were allowed to penetrate into the sites for at least a 20 minute time period. Each treatment was applied within 20 minutes of blister removal and treatment occurred once a day for the first five days.
Beginning on day seven after wounding (day 0) and each day thereafter for four to six days, five burn wounds and the surrounding normal skin from each treatment area were excised using an electrokeratome. Any specimens that were not excised intact were discarded. The excised wounds and the surrounding normal skin were incubated in 0.5 M NaBr for 24 hours at 37° C. After incubation, the specimens were separated into epidermal and dermal sheets. The epidermis was examined macroscopically for defects in the area of the burn wounds. Epithelization was considered complete if no defect was present (healed). […] The epidermal sheet was placed on cardboard for a permanent record.
The number of wounds healed (completely epithelized) were divided by the total number of wounds sampled per day and multiplied by 100.

[3] = 10^-4M topical, day 7 after burning
[4] = 10^-4M topical, day 8 after burning
[5] = 10^-4M topical, day 9 after burning
[6] = 10^-4M topical, day 10 after burning
[7] = 10^-4M topical, day 11 after burning
[8] = 10^-4M topical, day 12 after burning
[9] = 10^-4M topical, day 13 after burning
[10] = 10^-6M topical, day 7 after burning
[11] = 10^-6M topical, day 8 after burning
[12] = 10^-6M topical, day 9 after burning
[13] = 10^-6M topical, day 10 after burning
[14] = 10^-6M topical, day 11 after burning
[15] = 10^-6M topical, day 12 after burning
[16] = 10^-6M topical, day 13 after burning
[17] = 10^-8M topical, day 7 after burning
[18] = 10^-8M topical, day 8 after burning
[19] = 10^-8M topical, day 9 after burning
[20] = 10^-8M topical, day 10 after burning
[21] = 10^-8M topical, day 11 after burning
[22] = 10^-8M topical, day 12 after burning
[23] = 10^-8M topical, day 13 after burning

In the case of `C#CCN(C)[C@H](C)Cc1ccccc1` [selegiline HCl, selegiline], the “activity of the endogenous anti-oxidants superoxide dysmutase, catalase and glutathione peroxidase” value [1] is given as “increase the activity”, the “initiation of epithelization compared with other treatment groups” value ([2]; 10^-4 M and 10^-6 M) is given as “earlier time point than all other treatment groups” and the “Percent of wounds completely epithelized” value [2, 3] is given as “(0%)”. The “number of wounds healed (completely epithelized) over the number of wounds assessed” value (from here on “number … over the number of wounds assessed”) [2, 3] was  0/15, the “Percent of wounds completely epithelized” value [2, 4] was “(0%)” and the “number … over the number of wounds assessed” value [2, 4] was  0/15. For the same molecule, the “Percent of wounds completely epithelized” value [2, 5] was “(0%)”, the “number … over the number of wounds assessed” value [2, 5] was  0/15 and the “Percent of wounds completely epithelized” value [2, 6] was 20%. For the same molecule, the “number … over the number of wounds assessed” value [2, 6] was  3/15, the “Percent of wounds completely epithelized” value ([2]; 10^-4M topical, day 10 after burning, listed as A-1) was “(20%)” and the “Percent of wounds completely epithelized” value [2, 7] was 33%. For the same molecule, the “number … over the number of wounds assessed” value [2, 7] was  5/15, the “Percent of wounds completely epithelized” value ([2]; 10^-4M topical, day 11 after burning, listed as A-1) was “(33%)” and the “Percent of wounds completely epithelized” value [2, 8] was 33%. For the same molecule, the “number … over the number of wounds assessed” value [2, 8] was  6/15, the “Percent of wounds completely epithelized” value ([2]; 10^-4M topical, day 12 after burning, listed as A-1) was “(40%)” and the “Percent of wounds completely epithelized” value [2, 9] was 33%. For the same molecule, the “number … over the number of wounds assessed” value [2, 9] was  6/15, the “Percent of wounds completely epithelized” value ([2]; 10^-4M topical, day 13 after burning, listed as A-1) was “(40%)” and the “Percent of wounds completely epithelized” value [2, 10] was “(0%)”. The “number … over the number of wounds assessed” value [2, 10] was  0/15, the “Percent of wounds completely epithelized” value [2, 11] was “(0%)” and the “number … over the number of wounds assessed” value [2, 11] was  0/15. The “Percent of wounds completely epithelized” value [2, 12] was “(0%)”, the “number … over the number of wounds assessed” value [2, 12] was  0/15 and the “Percent of wounds completely epithelized” value [2, 13] was 20%. The “number … over the number of wounds assessed” value [2, 13] was  3/15, the “Percent of wounds completely epithelized” value ([2]; 10^-6M topical, day 10 after burning, listed as A-2) was “(20%)” and the “Percent of wounds completely epithelized” value [2, 14] was 33%. The “number … over the number of wounds assessed” value [2, 14] was  5/15, the “Percent of wounds completely epithelized” value ([2]; 10^-6M topical, day 11 after burning, listed as A-2) was “(33%)” and the “Percent of wounds completely epithelized” value [2, 15] was 40%. For the same molecule, the “number … over the number of wounds assessed” value [2, 15] was  6/15, the “Percent of wounds completely epithelized” value ([2]; 10^-6M topical, day 12 after burning, listed as A-2) was “(40%)” and the “Percent of wounds completely epithelized” value [2, 16] was 40%. The “number … over the number of wounds assessed” value [2, 16] was  6/15, the “Percent of wounds completely epithelized” value ([2]; 10^-6M topical, day 13 after burning, listed as A-2) was “(40%)” and the “Percent of wounds completely epithelized” value [2, 17] was “(0%)”. The “number … over the number of wounds assessed” value [2, 17] was  0/15, the “Percent of wounds completely epithelized” value [2, 18] was “(0%)” and the “number … over the number of wounds assessed” value [2, 18] was  0/15. The “Percent of wounds completely epithelized” value [2, 19] was “(0%)”, the “number … over the number of wounds assessed” value [2, 19] was  0/15 and the “Percent of wounds completely epithelized” value [2, 20] was “(0%)”. For the same molecule, the “number … over the number of wounds assessed” value [2, 20] was  0/15, the “Percent of wounds completely epithelized” value [2, 21] was “None” and the “number … over the number of wounds assessed” value [2, 21] was  0/15. The “Percent of wounds completely epithelized” value ([2]; 10^-8M topical, day 11 after burning, listed as A-3) was “(0%)”, the “Percent of wounds completely epithelized” value [2, 22] was 7% and the “number … over the number of wounds assessed” value [2, 22] was  1/15. For the same molecule, the “Percent of wounds completely epithelized” value ([2]; 10^-8M topical, day 12 after burning, listed as A-3) was “(7%)”, the “Percent of wounds completely epithelized” value [2, 23] was “Thirty-eight” and the “number … over the number of wounds assessed” value [2, 23] was  6/16. For the same molecule, the “Percent of wounds completely epithelized” value ([2]; 10^-8M topical, day 13 after burning, listed as A-3) was “(38%)” and the “wound crust colour during absorption of applied agent” value ([2]; first three days of treatment, normal again after 15 minutes) was “more pronounced”.
